The source of these data is patent US4922021A, “New alkylene diamine derivatives” (BASF Aktiensellschaft, priority 1981, dated 1990).

For data set [1], the system named is ouabain-induced arrhythmia. In words: Ouabain-induced arrhythmia in anaesthetized dogs. Format: in vivo. How it is done: Anaesthetized dogs of both sexes were treated intravenously with an infusion of 60 /ug/kg of ouabain to provoke arrhythmia, and the arrhythmic state was maintained with an ouabain dose 60 times less than the initial. In this way a ventricular tachycardia or tachyarrhythmia lasting for more than 180 minutes was provoked. The compounds were tested during this period. The period of recovered normal sinus rhythm was recorded, and when a compound exerted protective effect for more than 30 minutes, this fact was regarded as complete protection. The tests were performed essentially according to the method of Piascik et al. [Can.
Examination of the anti-arrhythmic effect in dogs anaesthetized with a 30
of pentobarbital sodium and treated with ouabain

Data set [2] concerns barium chloride-induced arrhythmia. In words: Barium chloride-induced arrhythmia in awake rabbits. Format: in vivo. Particulars: 2 mg/kg. On the procedure:
The compounds to be tested were administered intravenously to the animals 3 minutes after treating them with barium chloride, and the effect was recorded. It was regarded as a positive protecting effect when the compound suspended the arrhythmic condition for at least 3 minutes.

Data set [3] concerns fibrillation threshold of the heart. In words: Determination of the fibrillation threshold in anaesthetized cats. Format: in vivo. An excerpt: The chests of the cats were opened under chloralose-urethane anaesthesia a bipolar stimulating electrode was fixed onto the heart, and the heart was stimulated electrically with a frequency of 20 Hz, under continuously increasing current strength, until a fibrillo-flattern could be observed. This current strength was regarded as the fibrillation threshold of the animal.

Data set [4] has as its system aconitin-induced arrhythmia. Particulars: mouse, in vivo, po, 100 mg/kg.
Data set [5] concerns aconitin-induced arrhythmia. In words: animal or person. Particulars: Mus musculus, ip, read-out: Delay in time of appearance of arrhythmia.
Another data set concerns left auricle. In words: Electrophysiological tests on isolated rabbit heart, left auricle. Set-up: species or system rabbits. Particulars: 2 mg/l, average. How it is done:
(§1) Heart of rabbits of both sexes, weighing 1-2 kg, were removed, the right and left auricles and a segment of the right ventricle were prepared and placed into a vessel filled with nutrient solution. Bipolar platinum electrodes (a stimulating electrode and a lead electrode) were placed onto the organ strips, and the electric stimulus threshold and the speed of impulse condution were measured. The effective refractory period determined on the basis of the maximum driving frequency.

The test system of the next data set is right ventricle. In words: Electrophysiological tests on isolated rabbit heart, right ventricle. Set-up: species or system rabbits. The settings on record: 2 mg/l, average. On the procedure:
as §1

The test system of data set [6] is myocardial contractile force, arterial blood pressure and pulse rate. In words: Inotropic effects (myocardial contractile force) in anaesthetized cats. Format: in vivo. The settings on record: i.v.; for Contractility, change: basal 100. How it is done:
Cats were anaesthetized with chloralose-urethane, a cannula was lead into the femoral artery, and the cannula was connected, through a Statham P 23 Db pressure sensor, to a Hellige recorder, where the arterial blood pressure and the pulse rate were recorded. The animals were respirated artifically, their chests were opened, and a strain gage was sutured on the left heart. The strain gage was connected to the Hellige recorder, and the variations in cardiac contractile force were recorded. The test compounds were administered to the animals intravenously through a cannula.

Data set [7] relates to systemic and pulmonary circulation. In words: Effects on the systemic and pulmonary circulation of awake cats. Format: in vivo. The settings on record: i.v., 1.0 mg/kg. An excerpt: Cats were anaesthetized with pentobarbital, and cannulas were placed into the carotis artery and, through the jugular vein, into the pulmonary artery. An additional cannula was placed into the jugular vein for the administration of the test compound. The cannulas were filled up with heparin in order to avoid blood clotting. Thereafter the wounds were sutured, and the cannulas were led below a bandage placed around the neck of the animal. 3 days after this operation the systemic arterial blood pressure, the pulmonary arterial pressure and the pulse rate of the awake animals were measured with a Hellige recorder, connected to the cannulas through a Statham P 23 Db type pressure transducer.

A further data set is described as follows: in vivo. Particulars: mouse, ip.
Setting [8] is: i.v., 0.5 mg/kg, protection > 30 min = complete.
Where [9] appears, read: i.v., 1.0 mg/kg, protection > 30 min = complete.
Setting [10] is: i.v., 2.0 mg/kg, protection > 30 min = complete.
[11] abbreviates: i.v., 4.0 mg/kg, protection > 30 min = complete.
The mark [12] stands for this setting: i.v., 8.0 mg/kg, protection > 30 min = complete.
Where [13] appears, read: i.v., arrhythmia suspended for at least 3 minutes.

Regarding `Cc1cccc(C)c1NCCC(C)N` (centres unmarked) [1-(2,6-dimethylphenyl-amino)-3-amino-butane], the “Average time of partial suspension” value is listed as 0.3 min in [1] (i.v., 0.5 mg/kg); 0.8 min in [1] (i.v., 1.0 mg/kg); 3.7 min in [1] (i.v., 2.0 mg/kg); 5.4 min in [1] (i.v., 4.0 mg/kg); 6.5 min in [1] (i.v., 8.0 mg/kg). Also, the “Complete suspension, number of cases” value in [1] (setting [8]) is recorded as 1/16; in data set [1] (setting [9]) it was 1/15; in [1] (setting [10]), 2/15; in data set [1] (setting [11]), 7/14; in data set [1] (setting [12]), 3/5. The “Protecting effect, number of animals” value in data set [2] (setting [13]) is recorded as 5/10. Further, the “Effect on the fibrillation threshold” value is given as “+2.3%” in data set [3] (i.v., 0.5 mg/kg); “+3.0%” in data set [3] (i.v., 1.0 mg/kg); “+16.5%” in [3] (i.v., 2.0 mg/kg); “+52.9%” in data set [3] (i.v., 4.0 mg/kg). Also, the “Delay in the appearance time of arrhythmia” value (“Delay in the appearance time” below) in data set [4] was “+84.0%”. Moreover, the change in vivo at 10 mg/kg in data set [5] stood at 0%. Also, in data set [5], the change in vivo at 25 mg/kg came out at 48%. Moreover, the change in vivo at 50 mg/kg in data set [5] came out at 87%. Besides, the change in vivo at 75 mg/kg in [5] stood at 135%.

Regarding `Cc1cccc(C)c1OCC(C)N.Cl` (centres unmarked) [1-(2,6-Dimethylphenoxy)-2-aminopropane hydrochloride, reference compound], the “Average time of partial suspension” value in data set [1] (dog, in vivo, iv, 0.5 mg/kg) was 0.5 min; in data set [1] (dog, in vivo, iv, 1 mg/kg) it was 2.6 min; in data set [1] (dog, in vivo, iv, 2 mg/kg), 2.9 min; in data set [1] (dog, in vivo, iv, 4 mg/kg) it was 1.4 min; in data set [1] (dog, in vivo, iv, 8 mg/kg), 10.3 min. The “Complete suspension, number of cases” value in data set [1] (dog, in vivo, iv, 0.5 mg/kg) is 1/15; in data set [1] (dog, in vivo, iv, 1 mg/kg), 1/15; in [1] (dog, in vivo, iv, 2 mg/kg), 3/14; in data set [1] (dog, in vivo, iv, 4 mg/kg), 4/9; in data set [1] (dog, in vivo, iv, 8 mg/kg), 2/5. In addition, the “Protecting effect, number of animals” value in data set [2] (rabbit, in vivo, iv) is 4/10. The “Effect on the fibrillation threshold” value in [3] (in vivo, iv, 0.5 mg/kg) was “+9.4%”; in data set [3] (in vivo, iv, 1 mg/kg) it was “+12.9%”; in data set [3] (in vivo, iv, 2 mg/kg) it was “+24.8%”; in [3] (in vivo, iv, 4 mg/kg), “+34.0%”. In addition, the “Change of the conduction time” value is given as “+24%” in the data set on left auricle and “+11%” in the data set with right ventricle. Further, the “Change of the effective refractory period” value in the data set on left auricle was “+32%”; with right ventricle, “+28%”. For the same molecule, the “Change of the electric stimulus threshold” value in the data set on left auricle is recorded as “+36%”; in the data set on right ventricle, “+14%”. Further, the “Arterial blood pressure, change” value in [6] (0.5 mg/kg) was -45 mmHg; in [6] (1.0 mg/kg) it was -40 mmHg; in [6] (2.0 mg/kg), -60 mmHg; in [6] (5.0 mg/kg), -65 mmHg; in [7] (basal 102) it was -39 mmHg. In addition, the “Pulse/minute, change” value is -40 min⁻¹ in [6] (0.5 mg/kg); -50 min⁻¹ in data set [6] (1.0 mg/kg); -50 min⁻¹ in [6] (2.0 mg/kg); -50 min⁻¹ in [6] (5.0 mg/kg); -66 min⁻¹ in data set [7] (basal 190-200). The “Contractility, change” value in [6] (0.5 mg/kg) is on record as -29%; in data set [6] (1.0 mg/kg), -32%; in [6] (2.0 mg/kg) it was -38%; in [6] (5.0 mg/kg) it was -57%. Further, in data set [7] (basal 13), the “Pulmonary arterial mean pressure, change” value is “+6 mmHg”. Also, the “Delay in the appearance time” value in [4] is on record as “+82.0%”. The change in vivo at 5 mg/kg in [5] was 3.5%. Moreover, the change in vivo at 10 mg/kg in data set [5] came to 7.7%. Besides, the change in vivo at 25 mg/kg in [5] worked out at 33.3%. Also, in [5], the change in vivo at 50 mg/kg was determined as 83.1%. Moreover, the change in vivo at 75 mg/kg in data set [5] was 162%.

On to `Cc1cccc(C)c1N(C)CC(C)N(C)C` (centres unmarked) [1-[N-methyl-N-(2,6-dimethylphenyl)-amino]-2-dimethylamino-propane], for which the change in vivo at 50 mg/kg in data set [5] is 78%.

On to `CCC(N)CNc1c(C)cccc1C` (centres unmarked) [1-(2,6-dimethylphenyl-amino)-2-amino-butane], for which the “Delay in the appearance time” value in data set [4] was “+33.0%”. In addition, in data set [5], the change in vivo at 10 mg/kg came out at 3%, the change in vivo at 25 mg/kg is 40.8%, the change in vivo at 50 mg/kg was 104% and the change in vivo at 75 mg/kg stood at 149%.

Take `Cc1cccc(C)c1NC(C)CN.Cl.Cl` (centres unmarked) [1-Amino-2-(2,6-dimethylphenyl-amino)-propane dihydrochloride]: in data set [4], the “Delay in the appearance time” value is recorded as “+41.0%”. In “in vivo”, this molecule returned an LD50 of 155 mg/kg. In addition, in data set [5], the change in vivo at 25 mg/kg came to 16.6%, the change in vivo at 50 mg/kg came out at 60% and the change in vivo at 100 mg/kg turned out to be 127%.

`CCN(CC)CC(=O)Nc1c(C)cccc1C.Cl` [N-(diethylamino-acetyl)-2,6-dimethylaniline hydrochloride, reference compound]: the “Average time of partial suspension” value in [1] (i.v., 0.5 mg/kg) is recorded as 0.5 min; in data set [1] (i.v., 1.0 mg/kg), 1.6 min; in data set [1] (i.v., 2.0 mg/kg), 2.5 min; in data set [1] (i.v., 4.0 mg/kg), 2.5 min; in data set [1] (i.v., 8.0 mg/kg), 7.5 min. In addition, the “Complete suspension, number of cases” value in data set [1] (setting [8]) was 0/15; in data set [1] (setting [9]), 0/15; in data set [1] (setting [10]), 1/15; in data set [1] (setting [11]) it was 3/14; in data set [1] (setting [12]), 2/11. The “Protecting effect, number of animals” value in [2] (setting [13]) is recorded as 2/10. Besides, the “Effect on the fibrillation threshold” value in [3] (i.v., 0.5 mg/kg) is recorded as 0%; in data set [3] (i.v., 1.0 mg/kg) it was “+2.0%”; in data set [3] (i.v., 2.0 mg/kg), “+17.7%”; in data set [3] (i.v., 4.0 mg/kg), “+39.1%”. In [4], the “Delay in the appearance time” value is “+38.0%”. Further, the change in vivo at 5 mg/kg in data set [5] amounted to 1%. Besides, the change in vivo at 10 mg/kg in data set [5] is 16.2%. Moreover, in [5], the change in vivo at 25 mg/kg is 33.7%. Also, the change in vivo at 40 mg/kg in data set [5] stood at 70.1%.

Regarding `Cc1cccc(C)c1NCC(C)N` (centres unmarked) [1-(2,6-dimethylphenyl-amino)-2-amino-propane], the “Delay in the appearance time” value in [4] is given as “+27.0%”. Moreover, in “in vivo”, the LD50 is 135 mg/kg. In data set [5], the change in vivo at 25 mg/kg was determined as 17%, the change in vivo at 50 mg/kg was determined as 87.3% and the change in vivo at 100 mg/kg came out at 124%.
